Patent US20240067613A1, “NOVEL QUINAZOLINE DERIVATIVES AS SOS1 INHIBITORS AND USE THEREOF” (HANMI PHARMACEUTICAL CO., LTD., priority 2020, published 2024)

Target: T1, SOS1 binding to KRAS G12C (Homo sapiens, UniProt Q07889)
T1 construct: consisting of amino acid residues 564 to 1049 which are the catalytic domain; purchased Reaction Biology Corporation MSC-11-502 (SOS1-Strep); MSC-11-538 (KRAS G12C)
T1 sequence (Q07889 564-1049): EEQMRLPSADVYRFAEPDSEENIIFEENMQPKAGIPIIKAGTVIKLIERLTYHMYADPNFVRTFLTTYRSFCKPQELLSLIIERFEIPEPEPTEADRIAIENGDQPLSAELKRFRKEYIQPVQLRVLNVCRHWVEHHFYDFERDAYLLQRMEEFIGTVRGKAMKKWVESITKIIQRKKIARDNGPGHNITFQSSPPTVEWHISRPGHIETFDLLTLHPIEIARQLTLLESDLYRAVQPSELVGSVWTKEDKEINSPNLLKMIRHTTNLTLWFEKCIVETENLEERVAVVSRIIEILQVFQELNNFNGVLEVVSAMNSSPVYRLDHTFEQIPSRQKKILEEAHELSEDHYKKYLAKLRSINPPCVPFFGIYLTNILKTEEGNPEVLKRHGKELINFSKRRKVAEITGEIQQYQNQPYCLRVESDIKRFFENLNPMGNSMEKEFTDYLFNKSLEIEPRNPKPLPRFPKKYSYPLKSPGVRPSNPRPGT
Assay: SOS1 GTP substitution inhibition test (HTRF/TR-FRET, KRAS G12C-SOS1 binding inhibitory ability)
Type: biochemical
Conditions: HTRF, GST-KRAS G12C (2-169), SOS1-Strep (564-1049), 1.6, 8, 40, 200, 1,000 nM
Protocol: In order to determine whether the substitution function of SOS1 binding to KRAS G12C is inhibited by the above-described example compounds, a homogeneous time-resolved fluorescence (HTRF) test was performed using G12C(#MSC-11-538) and SOS1-Strep(#MSC-11-502) purchased from Reaction Biology Corporation (MA, USA). The activity of SOS1 enzyme was determined by measuring the amount of GTP bound to KRAS G12C proteins, using the principle of time-resolved fluorescence energy transfer (TR-FRET). Based on the principle that terbium bound to the GST-binding antibody of the GST-KRAS G12C protein acts as a donor of fluorescence resonance energy transfer (FRET), and the GTP bound to the KRAS G12C protein is labeled with the fluorescent agent DY-647P1 and acts as a receiver, when the more GTP is bound to the KRAS G12C protein by the substitution reaction of SOS1 according to this test, the higher HTRF or FRET signal is measured. To summarize, glutathione S-transferase (GST)-tagged KRAS G12C proteins (consisting of amino acid residues 2 to 169) required for the reaction, streptavidin-tagged SOS1 proteins (consisting of amino acid residues 564 to 1049 which are the catalytic domain), anti-GST antibody (#61[…]) purchased from CISBIO corporation, nucleic acid (#NU-820-647P1) purchased from Jena Bioscience GmbH were mixed in a buffer solution formed from 10 mM HEPES pH7.4, 150 mM NaCl, 5 mM MgCl2, and 1 mM dithiothreitol (DTT), and the mixture was added to a 384-well plate and reacted at room temperature. Next, FRET signals were measured with a Perkin Elmer Envision microplate reader. In this case, an excitation signal (excitation) was measured at 320 nm, and an emission signal (emission) was measured at 615/665 nm. The fluorescence measurement value when the SOS1 protein was not included was calculated as a background signal value, and the background signal value was subtracted from all of the measured HTRF values. The fluorescence measurement value when the synthesized compound was not included was measured as a control value, and this value was selected as a reference point of 100%. For each of the example compounds, fluorescence was measured at concentrations of 1.6, 8, 40, 200, and 1,000 nM (5 points, 5-fold), and the 50% activity inhibition value (IC50) of each of the compounds was calculated using GraphPad Prism. When the IC50 value was 50 nM or less, the inhibitory ability was denoted as +++. When the IC50 value was more than 50 nM and 100 nM or less, the inhibitory ability was denoted as ++. When the IC50 value was more than 100 nM, the inhibitory ability was denoted as +.

Compound: CNc1cc2c(N[C@H](C)c3cc(N)cc(C(F)(F)F)c3F)nc(C)nc2cc1C(=O)N1CCOCC1 [Example 50, (R)-(4-((1-(5-amino-2-fluoro-3-(trifluoromethyl)phenyl)ethyl)amino)-2-methyl-6-(methylamino)quinazoline-7-yl)(morpholino)methanone]
- IC50: ≤ 50 nM

Compound: CNc1cc2c(N[C@H](C)c3cc(N)cc(C(F)F)c3)nc(C)nc2cc1C(=O)N1CCOCC1 [Example 51, (R)-(4-((1-(3-amino-5-(difluoromethyl)phenyl)ethyl)amino)-2-methyl-6-(methylamino)quinazoline-7-yl)(morpholino)methanone]
- IC50: ≤ 50 nM

Compound: CCNc1cc2c(N[C@H](C)c3cc(N)cc(C(F)F)c3F)nc(C)nc2cc1C(=O)N1CCOCC1 [Example 52, (R)-(4-((1-(5-amino-3-(difluoromethyl)-2-fluorophenyl)ethyl)amino)-6-(ethylamino)-2-methylquinazoline-7-yl)(morpholino)methanone]
- IC50: 50 to 100 nM

Compound: CNc1cc2c(N[C@H](C)c3cc(N)cc(C(F)(F)F)c3)nc(C)nc2cc1C(=O)N1CCSC1 [Example 53, (R)-(4-((1-(3-amino-5-(trifluoromethyl)phenyl)ethyl)amino)-2-methyl-6-(methylamino)quinazoline-7-yl)(thiazolidine-3-yl)methanone]
- IC50: ≤ 50 nM

Compound: CNc1cc2c(N[C@H](C)c3cc(N)cc(-c4ccoc4)c3)nc(C)nc2cc1C(=O)N1CCOCC1 [Example 54, (R)-(4-((1-(3-amino-5-(furan-3-yl)phenyl)ethyl)amino)-2-methyl-6-(methylamino)quinazolin-7-yl)(morpholino)methanone]
- IC50: 50 to 100 nM

Compound: Cc1nc(N[C@H](C)c2cc(N)cc(C(F)F)c2F)c2cc(NC(C)C)c(C(=O)N3CCOCC3)cc2n1 [Example 55, (R)-4-((1-(5-amino-3-(difluoromethyl)-2-fluorophenyl)ethyl)amino)-6-(isopropylamino)-2-methylquinazoline-7-(yl)(morpholino)methanone]
- IC50: ≤ 50 nM

Compound: COCCNc1cc2c(N[C@H](C)c3cc(N)cc(C(F)F)c3F)nc(C)nc2cc1C(=O)N1CCOCC1 [Example 56, (R)-(4-((1-(5-amino-3-(difluoromethyl)-2-fluorophenyl)ethyl)amino)-6-((2-methoxyethyl)amino)-2-methylquinazolin-7-yl)(morpholino)methanone]
- IC50: ≤ 50 nM

Compound: CNc1cc2c(N[C@H](C)c3cc(N)cc(C(F)(F)F)c3)nc(C)nc2cc1C(=O)N1CCN(C)CC1 [Example 57, (R)-(4-((1-(3-amino-5-(trifluoromethyl)phenyl)ethyl)amino)-2-methyl-6-(methylamino)quinazoline-7-yl)(4-methylpiperazin-1-yl)methanone]
- IC50: 50 to 100 nM

Compound: CNc1cc2c(N[C@H](C)c3cc(N)cc(C(F)(F)F)c3)nc(C)nc2cc1C(=O)N1CC2COCC2C1 (stereo partly drawn) [Example 58, (4-(((R)-1-(3-amino-5-(trifluoromethyl)phenyl)ethyl)amino)-2-methyl-6-(methylamino)quinazoline-7-yl)(tetrahydro-1H-furo[3,4-c]pyrrol-5(3H)-yl)methanone]
- IC50: ≤ 50 nM

Compound: CNc1cc2c(N[C@H](C)c3cc(N)cc(C(F)(F)F)c3)nc(C)nc2cc1C(=O)N1CCS(=O)(=O)CC1 [Example 59, (R)-(4-((1-(3-amino-5-(trifluoromethyl)phenyl)ethyl)amino)-2-methyl-6-(methylamino)quinazolin-7-yl)(1,1-dioxothiomorpholino)methanone]
- IC50: ≤ 50 nM

Compound: CNc1cc2c(N[C@H](C)c3cc(N)cc(C(F)(F)F)c3)nc(C)nc2cc1C(=O)N1CCSCC1 [Example 60, (R)-(4-((1-(3-amino-5-(trifluoromethyl)phenyl)ethyl)amino)-2-methyl-6-(methylamino)quinazolin-7-yl)(thiomorpholino)methanone]
- IC50: ≤ 50 nM

Compound: CNc1cc2c(N[C@H](C)c3cc(N)cc(C(F)(F)F)c3)nc(C)nc2cc1C(=O)N1CCNCC1 [Example 61, (R)-(4-((1-(3-amino-5-(trifluoromethyl)phenyl)ethyl)amino)-2-methyl-6-(methylamino)quinazoline-7-yl)(piperazine-1-yl)methanone]
- IC50: ≤ 50 nM

Compound: CNc1cc2c(N[C@H](C)c3cc(N)cc(C(F)(F)F)c3)nc(C)nc2cc1C(=O)N1CCC1 [Example 62, (R)-(4-((1-(3-amino-5-(trifluoromethyl)phenyl)ethyl)amino)-2-methyl-6-(methylamino)quinazoline-7-yl)(azetidine-1-yl)methanone]
- IC50: 50 to 100 nM

Compound: CNc1cc2c(N[C@H](C)c3cc(N)cc(C(F)F)c3F)nc(C)nc2cc1C(=O)N1CC2COCC2C1 (stereo partly drawn) [Example 63, (4-(((R)-1-(5-amino-3-(difluoromethyl)-2-fluorophenyl)ethyl)amino)-2-methyl-6-(methylamino)quinazoline-7-yl)(tetrahydro-1H-furo[3,4-c]pyrrol-5(3H)-yl)methanone]
- IC50: ≤ 50 nM

Compound: CNc1cc2c(N[C@H](C)c3cc(N)cc(C(F)F)c3F)nc(C)nc2cc1C(=O)N1CCS(=O)(=O)CC1 [Example 64, (R)-(4-((1-(5-amino-3-(difluoromethyl)-2-fluorophenyl)ethyl)amino)-2-methyl-6-(methylamino)quinazoline-7-yl)(1,1-dioxothiomorpholino)methanone]
- IC50: ≤ 50 nM

Compound: CNc1cc2c(N[C@H](C)c3cc(C)cc(N)c3)nc(C)nc2cc1C(=O)N1CCOCC1 [Example 65, (R)-(4-((1-(3-amino-5-methylphenyl)ethyl)amino)-2-methyl-6-(methylamino)quinazolin-7-yl)(morpholino)methanone]
- IC50: 50 to 100 nM

Compound: COCCNc1cc2c(N[C@H](C)c3cc(N)cc(C(F)(F)F)c3)nc(C)nc2cc1C(=O)N1CCS(=O)(=O)CC1 [Example 68, (R)-(4-((1-(3-amino-5-(trifluoromethyl)phenyl)ethyl)amino)-6-((2-methoxyethyl)amino)-2-methylquinazoline-7-yl)(1,1-dioxothiomorpholino)methanone]
- IC50: ≤ 50 nM

Compound: COc1cc2c(N[C@H](C)c3cc(N)cc(C(F)(F)F)c3)nc(C)nc2cc1NC1CCOCC1 [Example 69, (R)-NM-(1-(3-amino-5-(trifluoromethyl)phenyl)ethyl)-6-methoxy-2-methyl-N^7-(tetrahydro-2H-pyran-4-yl)quinazoline-4,7-diamine]
- IC50: > 100 nM
